Test results as given in ChEMBL document CHEMBL3885881, “DrugMatrix”.

Species: Rattus norvegicus
Assay: DrugMatrix - Regimen: Daily Repeat
Type: toxicity, organism-based, Sprague-Dawley
Design: regimen Daily Repeat, gender Male, age 6-8 weeks
Settings: in vivo, po, route oral GAVAGE, […]; for ABSOLUTE BASOPHIL / ABSOLUTE EOSINOPHIL / ABSOLUTE LYMPHOCYTE / ABSOLUTE MONOCYTE / ABSOLUTE SEGMENTED NEUTROPHIL / BASOPHIL / EOSINOPHIL / ERYTHROCYTE COUNT / HEMATOCRIT / HEMOGLOBIN / LEUKOCYTE COUNT / LYMPHOCYTE / MEAN CORPUSCULAR HEMOGLOBIN / MEAN CORPUSCULAR VOLUME / MONOCYTE / NEUTROPHIL / NUCLEATED RED BLOOD CELLS / PLATELET COUNT: tissue Blood; for ALANINE AMINOTRANSFERASE / ALBUMIN / ALKALINE PHOSPHATASE / ASPARTATE AMINOTRANSFERASE / BLOOD UREA NITROGEN / CARBON DIOXIDE / CHLORIDE / CHOLESTEROL / CREATINE PHOSPHOKINASE / CREATININE / GLUCOSE / LACTATE DEHYDROGENASE / LIPASE / PHOSPHORUS / POTASSIUM / SODIUM / TOTAL BILIRUBIN / TOTAL PROTEIN / URIC ACID: tissue Plasma
[1] = 0 mg/kg, 72 h, dose level Control, time 3 day
[2] = 0 mg/kg, 120 h, dose level Control, time 5 day
[3] = 70 mg/kg, 72 h, dose level M1, time 3 day

In the case of `CCCCCCCCc1ccc(O)cc1` [4-OCTYLPHENOL], the “ABSOLUTE BASOPHIL” value [1] is reported as 0 CELLS/uL, the “ABSOLUTE EOSINOPHIL” value [1] is reported as 0 CELLS/uL and the “ABSOLUTE LYMPHOCYTE” value [1] is reported as 11091.17 CELLS/uL. The “ABSOLUTE MONOCYTE” value [1] was 172.17 CELLS/uL, the “ABSOLUTE SEGMENTED NEUTROPHIL” value [1] was 1186.67 CELLS/uL and the BASOPHIL [1] was 0%. The EOSINOPHIL [1] was 0%, the “ERYTHROCYTE COUNT” value [1] was 5.87 x10E6/uL and the HEMATOCRIT [1] was 36.87%. For the same compound, the HEMOGLOBIN [1] was 14.03 G/DL, the “LEUKOCYTE COUNT” value [1] was 12.45 x10E3/uL and the LYMPHOCYTE [1] was 88.67%. For the same compound, the “MEAN CORPUSCULAR HEMOGLOBIN” value [1] was 23.93 pg, the “MEAN CORPUSCULAR VOLUME” value [1] was 62.73 fL and the MONOCYTE [1] was 1.5%. The NEUTROPHIL [1] was 9.83%, the “NUCLEATED RED BLOOD CELLS” value [1] was 0 /100WBC and the “PLATELET COUNT” value [1] was 1150.33 x10E3/uL. The “ALANINE AMINOTRANSFERASE” value [1] was 67.17 u/L, the ALBUMIN [1] was 4.03 G/DL and the “ALKALINE PHOSPHATASE” value [1] was 462.5 u/L. For the same compound, the “ASPARTATE AMINOTRANSFERASE” value [1] was 88 u/L, the “BLOOD UREA NITROGEN” value [1] was 13.17 mg/dL and the “CARBON DIOXIDE” value [1] was 29.33 mmol/L. For the same compound, the CHLORIDE [1] was 101 MEQ/L, the CHOLESTEROL [1] was 69.17 mg/dL and the “CREATINE PHOSPHOKINASE” value [1] was 292.5 u/L. The CREATININE [1] was 0.17 mg/dL, the GLUCOSE [1] was 167.5 mg/dL and the “LACTATE DEHYDROGENASE” value [1] was 198.5 u/L. The LIPASE [1] was 10.67 u/L, the PHOSPHORUS [1] was 11.73 mg/dL and the POTASSIUM [1] was 5.91 MEQ/L. For the same compound, the SODIUM [1] was 143.3 MEQ/L, the “TOTAL BILIRUBIN” value [1] was 0.18 mg/dL and the “TOTAL PROTEIN” value [1] was 5.7 G/DL. For the same compound, the “URIC ACID” value [1] was 1.3 mg/dL, the “ABSOLUTE BASOPHIL” value [2] was 0 CELLS/uL and the “ABSOLUTE EOSINOPHIL” value [2] was 64.33 CELLS/uL. For the same compound, the “ABSOLUTE LYMPHOCYTE” value [2] was 12494.67 CELLS/uL, the “ABSOLUTE MONOCYTE” value [2] was 117 CELLS/uL and the “ABSOLUTE SEGMENTED NEUTROPHIL” value [2] was 1340.67 CELLS/uL. The BASOPHIL [2] was 0%, the EOSINOPHIL [2] was 0.33% and the “ERYTHROCYTE COUNT” value [2] was 5.82 x10E6/uL. The HEMATOCRIT [2] was 36.97%, the HEMOGLOBIN [2] was 14.18 G/DL and the “LEUKOCYTE COUNT” value [2] was 14.02 x10E3/uL. The LYMPHOCYTE [2] was 89%, the “MEAN CORPUSCULAR HEMOGLOBIN” value [2] was 24.42 pg and the “MEAN CORPUSCULAR VOLUME” value [2] was 63.52 fL. For the same compound, the MONOCYTE [2] was 0.83%, the NEUTROPHIL [2] was 9.83% and the “NUCLEATED RED BLOOD CELLS” value [2] was 0 /100WBC. For the same compound, the “PLATELET COUNT” value [2] was 1097.83 x10E3/uL, the “ALANINE AMINOTRANSFERASE” value [2] was 58.83 u/L and the ALBUMIN [2] was 3.92 G/DL. For the same compound, the “ALKALINE PHOSPHATASE” value [2] was 414.17 u/L, the “ASPARTATE AMINOTRANSFERASE” value [2] was 89.17 u/L and the “BLOOD UREA NITROGEN” value [2] was 16.83 mg/dL. The “CARBON DIOXIDE” value [2] was 29.17 mmol/L, the CHLORIDE [2] was 100.33 MEQ/L and the CHOLESTEROL [2] was 54.5 mg/dL. The “CREATINE PHOSPHOKINASE” value [2] was 386.17 u/L, the CREATININE [2] was 0.23 mg/dL and the GLUCOSE [2] was 184.17 mg/dL. The “LACTATE DEHYDROGENASE” value [2] was 229.17 u/L, the LIPASE [2] was 10.83 u/L and the PHOSPHORUS [2] was 10.88 mg/dL. The POTASSIUM [2] was 5.97 MEQ/L, the SODIUM [2] was 142.2 MEQ/L and the “TOTAL BILIRUBIN” value [2] was 0.12 mg/dL. The “TOTAL PROTEIN” value [2] was 5.63 G/DL, the “URIC ACID” value [2] was 1.55 mg/dL and the “ABSOLUTE BASOPHIL” value [3] was 0 CELLS/uL. For the same compound, the “ABSOLUTE EOSINOPHIL” value [3] was 0 CELLS/uL, the “ABSOLUTE LYMPHOCYTE” value [3] was 11265.33 CELLS/uL and the “ABSOLUTE MONOCYTE” value [3] was 137 CELLS/uL. The “ABSOLUTE SEGMENTED NEUTROPHIL” value [3] was 1431 CELLS/uL, the BASOPHIL [3] was 0% and the EOSINOPHIL [3] was 0%. For the same compound, the “ERYTHROCYTE COUNT” value [3] was 5.68 x10E6/uL, the HEMATOCRIT [3] was 36.37% and the HEMOGLOBIN [3] was 13.93 G/DL. The “LEUKOCYTE COUNT” value [3] was 12.83 x10E3/uL, the LYMPHOCYTE [3] was 88% and the “MEAN CORPUSCULAR HEMOGLOBIN” value [3] was 24.57 pg. The “MEAN CORPUSCULAR VOLUME” value [3] was 64.1 fL, the MONOCYTE [3] was 1% and the NEUTROPHIL [3] was 11%. The “NUCLEATED RED BLOOD CELLS” value [3] was 0 /100WBC, the “PLATELET COUNT” value [3] was 1181.67 x10E3/uL and the “ALANINE AMINOTRANSFERASE” value [3] was 74 u/L. The ALBUMIN [3] was 3.87 G/DL, the “ALKALINE PHOSPHATASE” value [3] was 534.33 u/L and the “ASPARTATE AMINOTRANSFERASE” value [3] was 88.33 u/L. For the same compound, the “BLOOD UREA NITROGEN” value [3] was 15 mg/dL, the “CARBON DIOXIDE” value [3] was 27.33 mmol/L and the CHLORIDE [3] was 102.33 MEQ/L. The CHOLESTEROL [3] was 67 mg/dL, the “CREATINE PHOSPHOKINASE” value [3] was 215 u/L and the CREATININE [3] was 0.13 mg/dL. For the same compound, the GLUCOSE [3] was 152.67 mg/dL, the “LACTATE DEHYDROGENASE” value [3] was 181.67 u/L and the LIPASE [3] was 10 u/L. It also gave a PHOSPHORUS [3] of 11.4 mg/dL, a POTASSIUM [3] of 5.59 MEQ/L and an SODIUM [3] of 144.4 MEQ/L. For the same compound, the “TOTAL BILIRUBIN” value [3] was 0.13 mg/dL, the “TOTAL PROTEIN” value [3] was 5.53 G/DL and the “URIC ACID” value [3] was 1.63 mg/dL.
